Mortality data for 16 compounds are collected here from patent US20230203026A1, “PESTICIDAL COMPOSITIONS AND METHODS” (CORTEVA AGRISCIENCE LLC, priority 2017, published 2023).

Test [1] relates to beet armyworm (Spodoptera exigua, LAPHEG) ("BAW"). Description: Insecticidal test for beet armyworm, 128-well diet tray assay. It is filed as in vivo. Particulars: 168 h, 50 μg/cm^2 of test compound on artificial diet, second instar BAW larvae, 25° C., five to seven days, average of eight wells, read-out: BAW % Control (or Mortality) rating. The procedure: Insecticidal test for beet armyworm (Spodoptera exigua, LAPHEG) (“BAW”)
(§1) Bioassays on beet armyworm (BAW; Spodoptera exigua: Lepidoptera) are conducted using a 128-well diet tray assay. One to five second instar BAW larvae are placed in each well (3 mL) of the diet tray that had been previously filled with 1 mL of artificial diet to which 50 μg/cm^2 of the test compound (dissolved in 50 μL of 90:10 acetone-water mixture) had been applied (to each of eight wells) and then allowed to dry. Trays are covered with a clear self-adhesive cover, vented to allow gas exchange, and held at 25° C., 14:10 light-dark for five to seven days. Percent mortality is recorded for the larvae in each well; activity in the eight wells is then averaged.

The test system of test [2] is Cabbage Looper (Trichloplusia ni, TRIPNI) ("CL"). The experiment in a line: Insecticidal test for cabbage looper, 128-well diet tray assay. The format is in vivo. As to conditions: Trichoplusia ni, 168 h; 50 μg/cm^2 of test compound on artificial diet; second instar CL larvae; 25° C.; five to seven days; average of eight wells; read-out: CL % Control (or Mortality) rating. How it is done:
Insecticidal Test for Cabbage Looper (Trichloplusia ni, TRIPNI) (“CL”)
as §1, with “cabbage looper (CL; Trichloplusia ni:” for “beet armyworm (BAW; Spodoptera exigua:”, “CL” for “BAW”

Take `Cc1ccc(C(C)C)c(N2C(=O)CS/C2=N\C(=O)ON(C)Cc2ccc(-c3ncn(-c4ccc(OC(F)(F)F)cc4)n3)cc2)c1` [A39, (Z)-3-(2-isopropyl-5-methylphenyl)-2-((((methyl(4-(1-(4-(trifluoromethoxy)phenyl)-1H-1,2,4-triazol-3-yl)benzyl)amino)oxy)carbonyl)imino)thiazolidin-4-one]: the mortality at 50 µg/cm2 in test [1] and in test [2] was 50 to 100% each time.

`Cc1ccc(C(C)C)c(N2C(=O)CS/C2=N\C(=O)ONCc2ccc(-c3ncn(-c4ccc(OC(F)(F)F)cc4)n3)cc2)c1` [A40, (Z)-3-(2-isopropyl-5-methylphenyl)-2-(((((4-(1-(4-(trifluoromethoxy)phenyl)-1H-1,2,4-triazol-3-yl)benzyl)amino)oxy)carbonyl)imino)thiazolidin-4-one]: the mortality at 50 µg/cm2 in test [1] and in test [2] was 50 to 100% in each case.

For `CCCc1ccc(C)cc1N1C(=O)CS/C1=N\C(=O)NOC(C)c1ccc(-c2ncn(-c3ccc(OC(F)(F)F)cc3)n2)cc1` (centres unmarked) [A12, (Z)-1-(3-(5-Methyl-2-propylphenyl)-4-oxothiazolidin-2-ylidene)-3-(1-(4-(1-(4-(trifluoromethoxy)phenyl)-1H-1,2,4-triazol-3-yl)phenyl)ethoxy)urea], the mortality at 50 µg/cm2 in test [1] and in test [2] was 50 to 100% throughout.

As for `Cc1ccc(C(F)(F)F)c(N2C(=O)CS/C2=N\C(=O)NOC(C)c2ccc(-c3ncn(-c4ccc(OC(F)(F)F)cc4)n3)cc2)c1` (centres unmarked) [A13, (Z)-1-(3-(5-Methyl-2-(trifluoromethyl)phenyl)-4-oxothiazolidin-2-ylidene)-3-(1-(4-(1-(4-(trifluoromethoxy)phenyl)-1H-1,2,4-triazol-3-yl)phenyl)ethoxy)urea], the mortality at 50 µg/cm2 in test [1] and in test [2] was 50 to 100% each time.

Regarding `CC(ONC(=O)/N=C1\SCC(=O)N1c1cc(Cl)ccc1OCC(F)(F)F)c1ccc(-c2ncn(-c3ccc(OC(F)(F)F)cc3)n2)cc1` (centres unmarked) [A20, (Z)-1-(3-(5-Chloro-2-(2,2,2-trifluoroethoxy)phenyl)-4-oxothiazolidin-2-ylidene)-3-(1-(4-(1-(4-(trifluoromethoxy)phenyl)-1H-1,2,4-triazol-3-yl)phenyl)ethoxy)urea], the mortality at 50 µg/cm2 in test [1] and in test [2] was 50 to 100% in each case.

Consider `CCCc1ccc(C)cc1N1C(=O)CS/C1=N\C(=O)NOCc1ccc(-c2ncn(-c3ccc(OC(F)(F)F)cc3)n2)cc1` [A10, (Z)-1-(3-(5-methyl-2-propylphenyl)-4-oxothiazolidin-2-ylidene)-3-((4-(1-(4-(trifluoromethoxy)phenyl)-1H-1,2,4-triazol-3-yl)benzyl)oxy)urea], for which the mortality at 50 µg/cm2 in test [1] and in test [2] was 50 to 100% in each case.

Regarding `CC(C)c1ccccc1N1C(=O)CS/C1=N\C(=O)NOCc1ccc(-c2ncn(-c3ccc(OC(F)(F)F)cc3)n2)cc1` [A29, (Z)-1-(3-(2-Isopropylphenyl)-4-oxothiazolidin-2-ylidene)-3-((4-(1-(4-(trifluoromethoxy)phenyl)-1H-1,2,4-triazol-3-yl)benzyl)oxy)urea], the mortality at 50 µg/cm2 in test [1] and in test [2] was 50 to 100% in each case.

For `Cc1ccc(OCC(F)(F)F)c(N2C(=O)CS/C2=N\C(=O)NN(C)C(C)c2ccc(-c3ncn(-c4ccc(OC(F)(F)F)cc4)n3)cc2)c1` (centres unmarked) [A38, (Z)-2-Methyl-N-(3-(5-methyl-2-(2,2,2-trifluoroethoxy)phenyl)-4-oxothiazolidinylidene)-2-(1-(4-(1-(4-(trifluoromethoxy)phenyl)-1H-1,2,4-triazolyl)phenyl)ethyl)hydrazine-1-carboxamide], the mortality at 50 µg/cm2 in test [1] and in test [2] was 50 to 100% throughout.

As for `Cc1ccc(C(C)C)c(N2C(=O)CS/C2=N\C(=O)NOC(C)c2ccc(-c3ncn(-c4ccc(OC(F)(F)F)cc4)n3)cc2)c1` (centres unmarked) [A17, (Z)-1-(3-(2-Isopropyl-5-methylphenyl)-4-oxothiazolidin-2-ylidene)-3-(1-(4-(1-(4-(trifluoromethoxy)phenyl)-1H-1,2,4-triazol-3-yl)phenyl)ethoxy)urea], the mortality at 50 µg/cm2 in test [1] and in test [2] was 50 to 100% each time.

As to `Cc1ccc(Cl)c(N2C(=O)CS/C2=N\C(=O)NOC(C)c2ccc(-c3ncn(-c4ccc(OC(F)(F)F)cc4)n3)cc2)c1` (centres unmarked) [A11, (Z)-1-(3-(2-Chloro-5-methylphenyl)-4-oxothiazolidin-2-ylidene)-3-(1-(4-(1-(4-(trifluoromethoxy)phenyl)-1H-1,2,4-triazol-3-yl)phenyl)ethoxy)urea], the mortality at 50 µg/cm2 in test [1] and in test [2] was 50 to 100% each time.

`CC(NNC(=O)/N=C1\SCC(=O)N1c1cc(Cl)ccc1OC(F)(F)F)c1ccc(-c2ncn(-c3ccc(OC(F)(F)F)cc3)n2)cc1` (centres unmarked) [A5, (Z)—N-(3-(5-chloro-2-(trifluoromethoxy)phenyl)-4-oxothiazolidin-2-ylidene)-2-(1-(4-(1-(4-(trifluoromethoxy)phenyl)-1H-1,2,4-triazol-3-yl)phenyl)ethyl)hydrazine-1-carboxamide]: the mortality at 50 µg/cm2 in test [1] and in test [2] was 50 to 100% throughout.

`CCCc1ccc(OC)cc1N1C(=O)CS/C1=N\C(=O)NOCc1ccc(-c2ncn(-c3ccc(OC(F)(F)F)cc3)n2)cc1` [A23, (Z)-1-(3-(5-Methoxy-2-propylphenyl)-4-oxothiazolidin-2-ylidene)-3-((4-(1-(4-(trifluoromethoxy)phenyl)-1H-1,2,4-triazol-3-yl)benzyl)oxy)urea]: the mortality at 50 µg/cm2 in test [1] and in test [2] was 50 to 100% each time.

Take `COCc1ccc(C)cc1N1C(=O)CS/C1=N\C(=O)NOC(C)c1ccc(-c2ncn(-c3ccc(OC(F)(F)F)cc3)n2)cc1` (centres unmarked) [A16, (Z)-1-(3-(2-(Methoxymethyl)-5-methylphenyl)-4-oxothiazolidin-2-ylidene)-3-(1-(4-(1-(4-(trifluoromethoxy)phenyl)-1H-1,2,4-triazol-3-yl)phenyl)ethoxy)urea]: the mortality at 50 µg/cm2 in test [1] and in test [2] was 50 to 100% in each case.

`COc1ccc(C(C)C)c(N2C(=O)CS/C2=N\C(=O)NOC(C)c2ccc(-c3ncn(-c4ccc(OC(F)(F)F)cc4)n3)cc2)c1` (centres unmarked) [A14, (Z)-1-(3-(2-Isopropyl-5-methoxyphenyl)-4-oxothiazolidin-2-ylidene)-3-(1-(4-(1-(4-(trifluoromethoxy)phenyl)-1H-1,2,4-triazol-3-yl)phenyl)ethoxy)urea]: the mortality at 50 µg/cm2 in test [1] and in test [2] was 50 to 100% in each case.

As for `Cc1ccc(C(C)C)c(N2C(=O)CS/C2=N\C(=O)NN(C)C(C)c2ccc(-c3ncn(-c4ccc(OC(F)(F)F)cc4)n3)cc2)c1` (centres unmarked) [A3, (Z)—N-(3-(2-isopropyl-5-methylphenyl)-4-oxothiazolidin-2-ylidene)-2-methyl-2-(1-(4-(1-(4-(trifluoromethoxy)phenyl)-1H-1,2,4-triazol-3-yl)phenyl)ethyl)hydrazine-1-carboxamide], the mortality at 50 µg/cm2 in test [1] and in test [2] was 50 to 100% in each case.

`O=C(/N=C1\SCC(=O)N1c1cc(Cl)ccc1OCC(F)(F)F)NOCc1ccc(-c2ncn(-c3ccc(OC(F)(F)F)cc3)n2)cc1` [A31, (Z)-1-(3-(5-Chloro-2-(2,2,2-trifluoroethoxy)phenyl)-4-oxothiazolidin-2-ylidene)-3-((4-(1-(4-(trifluoromethoxy)phenyl)-1H-1,2,4-triazol-3-yl)benzyl)oxy)urea]: the mortality at 50 µg/cm2 in test [1] and in test [2] was 50 to 100% each time.

In general, mortality refers to the percentage killed.
